Results published in patent publication US10555965B2, “Environment-responsive hyaluronic acid nanoparticles” (Industry-University Cooperation Foundation Hanyang …, priority 2015, dated 2020).

Tests used:
HepG2 cells = test: Apoptosis/necrosis by flow cytometry (Annexin-V-FITC/PI); type: cell-based; conditions: 12 hours treatment, nanoparticles 1 mg/mL or 2DG 0.25 mg/mL
Protocol: The 2-deoxy-D-glucose was used as a glycolytic inhibitor. The ATP content was measured using an ATP Colorimetric/Fluorometric Assay Kit (Biovision). Lactate secretion was quantified using an EnzyChromTM L-Lactate Assay Kit (Bioassay). In cell fate, an effect of the HA-PBA nanoparticles on the inhibition of glycolysis was examined using a flow cytometer (BD FACS Caliber). Briefly, the HepG2 cells were treated with the HA-PBA nanoparticles or 2DG for 12 hours. An Annexin-V-FITC antibody and propidium iodide (PI) were used as markers for apoptotic and necrotic cell death. The HepG2 cells were seeded in a 24-well tissue culture plate at a density of 1×10^4 cells/well, and incubated at 37° C. for 24 hours under 5% CO2 conditions. The cells were washed with PBS, and treated for 8 hours with a low or high glucose medium including the HA-PBA nanoparticles (1 mg/mL) having a degree of […]. Also, prior to treatment with the HA-PBA nanoparticles, the cells were pretreated with a hyaluronate (2.5 mg/mL) dissolved in a low glucose medium. The medium was replaced with a fresh medium daily. At a predetermined point of time, the cells were treated with EZ-Cytox for 2 hours, and the optical density at 450 nm was measured using a UV/VIS spectrophotometer. The growth rate of the cells was calculated from a change in the number of the cells in 3 days of incubation. […]

HepG2 tumor = test: In vivo therapeutic effect (liver cancer growth inhibition); design: species or system mice; conditions: intravenous, 5 times for a week, monitored 17 days
Protocol: To evaluate a therapeutic effect of the HA-PBA nanoparticles, the tumor-bearing mouse model of Experimental Example 7 was prepared.
The HA-PBA nanoparticles (20 mg kg), paclitaxel (10 mg/kg), and PBS were intravenously injected into the caudal veins of the tumor-bearing mice (injected 5 times for a week). Changes in tumor volume were monitored for 2 weeks (n=7). Tumor tissues were extracted from the mice, and embedded into an optimal cutting temperature (OCT) compound. The tumor tissues were cut into sections (12 μm thick), and stained with hematoxylin and eosin (H&E) and a DeadEnd™ colorimetric TUNEL system (Promega, USA).
When the tumor volumes of the mice reached approximately 90 mm3, the HA-PBA nanoparticles, paclitaxel, and PBS were injected into the mice.

| Structure (SMILES) | in-late apoptotic HepG2 cells (HepG2 cells; control 5.77%) [%] | apoptotic HepG2 cells (HepG2 cells; control 6.76%) [%] | weight loss (HepG2 tumor) | tumor growth rate compared to PBS-treated group (HepG2 tumor; nanoparticles 20 mg kg, paclitaxel 10 mg/kg) |
| --- | --- | --- | --- | --- |
| O=CC[C@@H](O)[C@H](O)[C@H](O)CO [2DG, 2-deoxy-D-glucose] | 4.65 | 18.81 |  |  |
| CC(=O)O[C@H]1C(=O)[C@@]2(C)[C@H]([C@H](OC(=O)c3ccccc3)[C@]3(O)C[C@H](OC(=O)[C@H](O)[C@@H](NC(=O)c4ccccc4)c4ccccc4)C(C)=C1C3(C)C)[C@]1(OC(C)=O)CO[C@@H]1C[C@@H]2O [paclitaxel] |  |  | No weight loss | inhibited tumor growth rate |
